According to patent US11607432B2, “Probiotic compositions containing clostridiales for inhibiting inflammation” (Evelo Biosciences, Inc., priority 2014, dated 2023):
“Also recorded” adds a separate entry of the source. Like-named read-outs stand apart in the source and are kept apart here.

Tests used:
[1] = system: human peripheral blood mononuclear cells (PBMCs); assay: Cytokine release by human PBMCs incubated with commensal bacteria alone or in combination with E. faecalis (Luminex); format: cell-based; details: for ability to reduce/counteract the induction of pro-inflammatory cytokines by EPV 8 (incl. IL-6, MCP-1, IL-12p70, IFNγ): combination with EPV 8; for anti-inflammatory cytokine profile for a Th-1-driven condition such as GVHD: overall assessment, FIG. 11
[2] = cited from earlier work
[3] = system: vaginal microbiome; set-up: species or system C57Bl/6 female mice; details: mouse, in vivo, po
Text: (§1) The trillions of organisms forming the microbiome function as an organ system interconnected throughout the body. The possibility that modification of the microbiome in a given physical location may influence the microbiome at other sites in the body (distal augmentation) was investigated. Seven week old C57Bl/6 female mice were acclimatized for 7 days prior to the start of the study by daily handling and shuffling between cages. All mice were housed at three mice per cage in individually vented cages (Thoren, Hazleton, Pa.). At day 0, baseline fresh fecal pellets, and vaginal lavages with 100 μL of sterile double-distilled water were collected and immediately frozen at −80° C. for microbiome analysis. […] Water alone is not expected to influence the microbiome and acted as a negative control. […] The impact of oral vancomycin is therefore expected to be limited to the gastrointestinal tract such that microbiome changes elsewhere in the body (e.g. vagina) would be attributable to distal augmentation. […]
(§2) Isolation and sequencing of microbial DNA from the stool and vaginal samples was performed by DNA Genotek (Ottawa, ON, Canada). The V3-V4 region of the 16S ribosomal subunit was amplified with custom PCR primers and sequenced on an Illumina MiSeq to a minimum acceptable read depth of 25,000 sequences per sample. […]

[4] = system: microbiome of the gut; set-up: species or system C57Bl/6 female mice; details: mouse, in vivo
Text: as §1, §2

[5] = in vivo; cited from earlier work
[6] = system: intestinal permeability; format: in vivo, mice
[7] = system: human PBMCs; assay: Flow cytometry of T cell populations in human PBMCs cultured with commensal bacteria; format: cell-based; details: compared to PBMCs alone (control); percent of CD3ε+CD4+ cells
Procedure: In order to determine whether exposure to commensal bacteria may polarize T cells toward a particular phenotype, flow cytometry analysis was performed on human PBMCs cultured with various commensal bacteria as described above. The cells recovered from culture were washed in phosphate-buffered saline and stained with a cocktail of fluorescently labeled antibodies against specific cell surface protein markers to allow for the detection of Th1 cells (CXCR3^+CCR6^−), Th2 cells (CXCR3^−CCR6^−), Th17 cells (CXCR3^+CCR6^+) and Tregs (CD25^+CD127^lo). Negative control wells contained PBMCs in culture medium alone and positive control wells contained PBMCs+LPS (100 ng/ml) as a known immune stimulus. The commensal bacteria examined inluded: Epv 1: R. gnavus; Epv 3: B. luti; Epv 2: E. rectale; Epv 5: B. wexlerae; Epv. 8: E. faecalis; Epv 20: B. obeum, ATCC 29174; Epv 21: B. product, ATCC 27340; Epv 24: B. hansenii, ATCC 27752. […] For example, the optimal T cell profile to address pro-inflammatory disorders such as GVHD would consist of ↑Treg, ↓Th17, ↓ or unchanged Th1, and ↑Th2. This phenotype was induced by many of the bacteria tested.

[8] = Normal human volunteer study of D-xylose: serum CRP, serum cytokines and T-cell markers; format: in vivo
Text: Blood was collected at pre-specified pre- and post-ingestion time points to evaluate C-reactive protein (CRP), serum cytokines (tumor necrosis factor alpha [TNF-α], interleukin [IL]-2, IL-6, interferon gamma [IFN-γ], and IL-10), and T-cell markers CD3, CD4, CD8, CD25, and FOXP3. Plasma was also stored and may be tested for biomarkers and/or metabolic markers for up to 7 years.
Summary statistics (n, mean, standard deviation, median, minimum, and maximum) were presented for serum concentrations of CRP, flow cytometry T-cell markers (CD3, CD4, CD8, CD25, and FOXP3), and cytokines (TNF-α, IL-2, IL-6, IFN-γ, and IL-10) as per their nominal time points.

[9] = system: gut microbiome; assay: Normal human volunteer study of D-xylose: changes in the gut microbiome (stool 16S sequencing); format: in vivo; details: for alpha diversity of the gut microbiome: over time on study
[10] = human, in vivo
Procedure: D-xylose is a carbon source generally preferred by anaerobic bacteria. […] A parallel, double-blind, 5 cohort escalation food safety study was conducted to examine D-xylose in normal human volunteers. The study was a double-blind, single-center, parallel group study designed to evaluate the tolerability and potential microbiome changes induced by ingestion of D-xylose at 5 different amounts in healthy, adult volunteers enrolled at 1 study center in the United States (US).
Subjects were screened for eligibility within 21 days prior to the first planned ingestion of study sweetener on Day 1 (Baseline). […]
Subjects returned to the study center weekly on Days 8, 15, 22, and 28 for ingestion, tolerability, and compliance evaluations. Safety was evaluated on a continual basis through adverse events (AE) monitoring, clinical laboratory measurements, vital sign monitoring, physical examinations, electrocardiograms (ECGs), telephone follow-up, and electronic subject ingestion diaries. Stool was collected pre-ingestion and at pre-specified time points, and post-ingestion samples were evaluated for changes in the gut microbiome compared with Baseline for all subjects. […]
Safety was evaluated on a continual basis through AE monitoring, clinical laboratory measurements, vital sign monitoring, physical examinations, ECGs, telephone follow-up, and electronic subject ingestion diaries. […]

[11] = bacterium alone, 24, 48 and 72 hours
[12] = Table 1, NIAID priority pathogen category, OP or N

With Blautia luti [EPV 3] the “intrinsic inflammatory activity (induction of pro-inflammatory cytokines) compared to EPV 8” value ([1]; bacterium alone) was “relatively low intrinsic inflammatory activity”, the “induction of Th1-related cytokines (IFN-γ, IL-12p70, IL-6, IL-2, TNFα)” value [1, 11] was “minimal induction” and the “induction of monocyte, macrophage and neutrophil-related inflammatory cytokines (MCP-1, MIP1β, MIP1α, RANTES, IL-1α, IL1β, IFN-α2, IL-8)” value [1, 11] was “least inflammatory”. For the same compound, the “countering the effect of E. faecalis (Epv 8) on monocyte, macrophage and neutrophil-related inflammatory cytokines” value ([1]; combination with E. faecalis) was “most effective”, the “counteracting induction of Th1-related cytokines by E. faecalis (Epv 8)” value ([1]; combination with E. faecalis, 24, 48 and 72 hours) was “most effective” and the “ability to reduce/counteract the induction of pro-inflammatory cytokines by EPV 8 (incl. IL-6, MCP-1, IL-12p70, IFNγ)” value [1] was “able to reduce the induction of pro-inflammatory cytokines”. The “anti-inflammatory cytokine profile for a Th-1-driven condition such as GVHD” value [1] was “significantly desirable anti-inflammatory profile; also recorded: desirable anti-inflammatory cytokine profile”.

For Eubacterium rectale [EPV 2], the “induction of monocyte, macrophage and neutrophil-related inflammatory cytokines (MCP-1, MIP1β, MIP1α, RANTES, IL-1α, IL1β, IFN-α2, IL-8)” value [1, 11] was “least inflammatory” and the “countering the effect of E. faecalis (Epv 8) on monocyte, macrophage and neutrophil-related inflammatory cytokines” value ([1]; combination with E. faecalis) was “most effective”.

With Blautia obeum [EPV 78] the “low induction of pro-inflammatory cytokines and/or positive induction of anti-inflammatory cytokines, and ability to counteract the inflammatory activity of E. faecalis (candidate criteria)” value (shortened to “low induction”) [1] was “meeting these criteria”.

In the case of Clostridium glycolicum, the “Pathogen Status” value [2, 12] is listed as “N”.

For CN[C@H](CC(C)C)C(=O)N[C@H]1C(=O)N[C@@H](CC(N)=O)C(=O)N[C@H]2C(=O)N[C@H]3C(=O)N[C@H](C(=O)N[C@H](C(=O)O)c4cc(O)cc(O)c4-c4cc3ccc4O)[C@H](O)c3ccc(c(Cl)c3)Oc3cc2cc(c3O[C@@H]2O[C@H](CO)[C@@H](O)[C@H](O)[C@H]2O[C@H]2C[C@](C)(N)[C@H](O)[C@H](C)O2)Oc2ccc(cc2Cl)[C@H]1O [Vancomycin, vancomycin], the “day 0 to day 6 pattern in vaginal samples (PCA)” value [3] is given as “overall difference between the PBS and oral vancomycin groups”, the “impact on the microbiome of the gut (PCA at the family level, fecal samples day 0 to day 6)” value [4] is given as “strong impact” and the “absorption from the gut after oral administration” value [5] is given as “poorly absorbed from the gut”.

In the case of Clostridium sordellii, the “Pathogen Status” value [2, 12] is given as “N”.

In the case of CCN1CCN(c2cc3c(cc2F)c(=O)c(C(=O)O)cn3C2CC2)CC1 [enro, enrofloxacin, reference compound], the “serum endotoxin levels after antibiotic treatment” value ([6]; 0.25 g/L in drinking water day −7 to day −2, measured 2 days after a 5 day course (day 0)) is reported as “increase in serum endotoxin levels” and the “serum endotoxin levels over time after antibiotic treatment” value ([6]; by day 14) is reported as “return to baseline by day 14”.

For Eubacterium rectale [EPV 35], the “low induction” value [1] was “meeting these criteria”.

In the case of “Enterococcus faecalis [EPV 8, reference compound]”, the “proportion of T cells with a regulatory phenotype (Tregs, CD25+CD127lo)” value (shortened to “proportion of T cells”) [7] is listed as “little or no increase”, the “induction of Th1-related cytokines (IFN-γ, IL-12p70, IL-6, IL-2, TNFα)” value [1] is listed as “induced high levels” and the “Pathogen Status” value ([2]; OTU of Table 1) is listed as “N”.

For Clostridium paraputrificum, the “Pathogen Status” value [2, 12] is listed as “N”.

In the case of Bacteroides fragilis, the “Pathogen Status” value ([2]; Table 1, OTU list, NIAID priority pathogen category, OP or N) is listed as “N”.

In the case of Blautia luti (BlnIX) [EPV 114], the “low induction” value [1] is reported as “meeting these criteria”.

In the case of Blautia producta ATCC 27340 [EPV 21], the “proportion of T cells” value [7] is reported as “greatest impact”.

In the case of Blautia Hansenii ATCC27752 [EPV 24], the “proportion of T cells” value [7] is reported as “greatest impact”.

In the case of Clostridium tertium, the “Pathogen Status” value [2, 12] is listed as “N”.

In the case of Blautia wexlerae [EPV 5], the “induction of IL-10” value ([1]; 24, 48 and 72 hours) is reported as “most potent”, the “ability to reduce/counteract the induction of pro-inflammatory cytokines by EPV 8 (incl. IL-6, MCP-1, IL-12p70, IFNγ)” value [1] is reported as “little ability to counteract” and the “anti-inflammatory cytokine profile for a Th-1-driven condition such as GVHD” value [1] is reported as “suboptimal anti-inflammatory profile”.

In the case of O=C[C@H](O)[C@@H](O)[C@H](O)CO [D-xylose], the “basal levels of serum endotoxin” value ([6]; mouse, in vivo) is reported as “reduced these basal levels over time; also recorded: reduces basal levels of serum endotoxin”, the “effect of xylose on the increase in serum endotoxin level caused by cipro” value ([6]; mouse, in vivo) is reported as “appeared to counteract the increase in serum endotoxin level; also recorded: counteracts the endotoxin increase” and the “effect of xylose on the increase in serum endotoxin level caused by enro” value ([6]; mouse, in vivo) is reported as “but not enro”. For the same compound, the “levels of serum interferon gamma over time” value ([8]; 2 g and 15 g D-xylose cohorts, FIG. 30) was “trend for reduced levels”, the “total T-cells or any T-cell subsets over time” value ([8]; any ingestion amount) was “No consistent or clinically meaningful changes over time” and the “subjects with normal serum CRP at Baseline with at least 1 post-ingestion CRP value >2.9 mg/L” value ([8]; human, in vivo) was 8.3%. The “serum cytokines (TNF-α, IL-2, IL-6, IFN-γ, IL-10) over time” value ([8]; most data points below the limit of quantitation, any ingestion amount) was “did not indicate any consistent or clinically meaningful changes over time”, the “changes in the gut microbiome, overall” value ([9]; normal individuals and normal mice) was “subtle changes in the gut microbiome” and the “community composition of the gut microbiome over time” value ([9]; regardless of ingestion amount) was “no significant changes in community composition”. For the same compound, the “alpha diversity of the gut microbiome” value ([9]; regardless of ingestion amount) was “no apparent significant impact”, the “alpha diversity of the gut microbiome” value ([9]; regardless of ingestion amount, listed as xylose) was “no major shifts in the microbiome alpha diversity” and the “Chao diversity index (community richness) over time” value ([9]; xylose TID at 1, 2, 8, 12.5 or 15 grams, FIG. 31) was “overall decrease”. The “SAEs, severe AEs, subject deaths” value [10] was “No SAEs, severe AEs, or subject deaths were reported”.

For Ruminococcus gnavus [EPV 1], the “eliciting Th2 cytokines (IL-13, IL-4, IL-5)” value ([1]; bacterium on its own, 24, 48 and 72 hours) was “most active” and the “eliciting Th2 cytokines (IL-13, IL-4, IL-5)” value ([1]; in the presence of E. faecalis, 24, 48 and 72 hours) was “most active”.
